One experiment relates to P. falciparum. Briefly: Uptake of [35S] methionine as an index of inhibition of parasite growth. It is filed as cell-based. The note with it: P. falciparum in culture, different concentrations of triclosan (Fig. 5). How it is done: Uptake of [^35S] methionine, NEN, DuPont, (specific activity 1175 Ci/mmol) is used as an index of parasite growth. The final isotope concentration to be added in each well is 100 µCi/ml culture. Before an hour of total incubation period (24, 48, or 72 h) 20 µl of the isotope in culture medium is added to each well and incubated for an additional 1 hr. After incubation, contents of the well are pipetted into microcentrifuge tubes kept on ice. The samples are spun at 3000 g for 10 sec. The supernatant is discarded and the pellet washed twice in 1.0 ml of 0.9% NaCl. The pellet is lysed with 50 µl distilled water and spotted onto Whatman No. 3 discs (presoaked in 10% TCA with cold methionine and dried). After spotting, these discs are allowed to dry and then they are treated with hot TCA, cold TCA (10% throughout), alcohol ether (2:1, v/v) and finally with ether. […] The discs are air dried after ether treatment, and counted in optiphase 'Hisafe' scintillation fluid (Wallac Scintillation Products, U.K.) in a Wallac β-counter (Model 1409, Finland).
The drug and parasites were aliquoted in required number of rows of wells in 96 well titre plates as described in example 1. […] After ether treatment, the discs were air dried, placed in scintillation fluid phase III from Wallac and counted in Wallac β-counter.

A further experiment concerns Plasmodium falciparum. Briefly: In vitro effect on growth of Plasmodium falciparum (parasitemia and morphology in Giemsa stained smears). It is filed as cell-based. Particulars: P. falciparum cultures in human erythrocytes. The protocol:
Plasmodium falciparum cultures with 5-6% parasitemia are diluted with washed 50% suspension of red blood cells and CRPMI so that the initial parasitemia becomes 1% and hematocrit 2%. 1.5 millilitres of this diluted infected cell suspension is placed in flat bottom vials, which are kept in a desiccator equipped with a stopcock. A candle is lit and the cover of the desiccator is put on with the stopcock open. When the candle goes out, the stopcock is closed. This is a simple but effective way to produce an atmosphere of low O2(1-5%) and high CO2 content (7%). Fresh medium is provided daily by withdrawing the supernatant and supplementing cells with 1.25 millilitres of CRPMI. Fresh erythrocytes are added every third or fourth day when the parasitemia reaches 6-8%, bringing it down to 1%. In cultures, all stages of the asexual cycle are seen at any one time, since the cultures have lost some of the synchronicity characteristic of P. falciparum in man. Delicate rings with two chromatin dots are common. Schizonts or segmenters show 15-18 merozoites, the same numbers seen in material from human infections.
This is done by observing the stained smear of infected red blood cells under the microscope in oil immersion. The following stages of Plasmodium falciparum with their characteristic features can be seen. These stages are as follows: • 1. […]

For experiment [1], the system named is cell free system for the synthesis of fatty acids of Plasmodium falciparum. Briefly: Incorporation of [14C] malonyl-CoA in fatty acids in cell free system, scintillation counting and TLC/autoradiography. It is filed as biochemical. How it is done:
For cell free fatty acid synthesis in E.Coli, See Δ P.W. Majerus et al. (1968), Methods in Enzymol, 14, 43-52.
The pellet was washed four to five times with cold phosphate buffer saline and after washing, the pellet was suspended in 3.0 ml of phosphate buffer saline and equal volume of 0.15% saponin was added to isolate free parasites. (See specific embodiments). The late ring stage (trophozoites) of the parasites thus isolated were washed once thoroughly with PBS and the cells suspended in 0.4 ml of 1 mM potassium phosphate buffer pH 7.0 and sonicated for 15 sec. The cell lysate (2.0 mg cell extract protein) thus prepared was mixed with 200 µl of 200 mM of potassium phosphate buffer pH 7.0 containing 70 uM acetyl CoA, 8 mM glucose-6-phosphate, 3 mM each of NADH and NADPH, 0.4 mM EDTA, 4 units of glucose-6-phosphate dehydrogenase, 45 uM [^14C]malonyl-CoA (specific activity 54.2 mCi/mmol, DuPont) and 3 mM dithiothreitol (DTT). To this 200 µg of DTT reduced acyl carrier protein (ACP) from E. coli (Sigma) in 25 µl of 75 mM phosphate buffer was added. The reaction mixture was incubated for 30 min at 37°C. […] A part (25 µl) of the sample in methanol was counted by scintillation counting to determine also the extent of incorporation of [^14C] malonyl-CoA in fatty acids both in the presence and absence of Triclosan.

For a further experiment, the system named is Plasmodium berghei. The experiment is described as follows: Protection of mice against malaria after administration in vivo (P. berghei infected mice). More on the design: species or system Swiss mice. Particulars: for mice survived till day 14 / mice survived till 14th day: subcutaneously in DMSO, day 1 of infection and next 6 days, P. berghei infected male swiss mice. An excerpt: The present invention involves the use of triclosan for the manufacture of an antimalarial agent to inhibit the growth of the murine malaria parasite Plasmodium berghei as well. The effect of various concentration of triclosan in controlling parasitemia is monitored in Plasmodium berghei infected mice. • 1. Plasmodium berghei infection: P. berghei parasite is maintained in Swiss male mice through serial blood passage. • 2. Triclosan treatment: Swiss mice (5 animals/group) are infected on day zero with about 10^6 infected red blood cells (IRBC). The animals are kept under observation to record parasitemia and mortality. Parasitemia is determined by counting 10^3 red cells in a thin blood smear stained with Giesma and expressed as number of parasitized cells/100 erythrocytes. The animals given only dimethylsulfoxide (DMSO) are used as controls and referred to as untreated animals. Level of parasitemia is >1% on the first day of triclosan treatment. Parasitemia is monitored every 24 hrs, for 7-8 days.
Male swiss mice were infected with P. berghei. The animals were kept under observation and parasitemia was recorded daily. Triclosan (0.8, 1.6, 3.0, 8.0, 14.0 and 28.0 mg/kg body weight of mice respectively) in DMSO was given subcutaneously on day 1 of infection when parasitemia was>1% and subsequently for the next 6 days. Experiments with triclosan were conducted with a group of five animals, each for the dosages mentioned above. DMSO was given to control animals (6) and were referred to as untreated animals. Parasitemia and mortality were recorded till the untreated mice died. Typically all the six mice in the control group died by day 9 of infection while 3, 3 and 4 mice out of 5 treated with 0.8, 1.6 and 3.0 mg triclosan/kg (body weight), survived till day 14. All the mice (5 out of 5) survived till 14th day when treated with 8.0, 14.0 and 28.0 mg triclosan/kg (body weight).

`Oc1cc(Cl)ccc1Oc1ccc(Cl)cc1Cl` [triclosan, 2,4,4'-trichloro-2'-hydroxydiphenyl ether]: the “inhibition of protein synthesis, uptake of (^35S) methionine” value in the experiment with P. falciparum is “reduced uptake of (^35S) methionine”. Moreover, the “growth of the human malaria parasite in vitro” value in the experiment on Plasmodium falciparum was “inhibits the growth of the human malaria parasite in vitro in a very potent manner”. Also, in experiment [1] (cell free system, 0.15, 0.225, 0.3, 0.6 and 1.2 µg of triclosan, 30 min at 37°C), the “incorporation of [^14C] malonyl CoA in fatty acids” value is “inhibits incorporation of [^14C] malonyl CoA in fatty acids”. Also, the “longer chain fatty acids synthesized (elongation reaction)” value in experiment [1] (cell free system, TLC with autoradiography) is “progressive decline in the longer chain fatty acids”. In addition, the “mice survived till day 14” value in the experiment on Plasmodium berghei (0.8 mg/kg body weight) is reported as 3 mice out of 5; with Plasmodium berghei (1.6 mg/kg body weight), 3 mice out of 5; with Plasmodium berghei (3.0 mg/kg body weight), 4 mice out of 5. Moreover, the “mice survived till 14th day” value with Plasmodium berghei (8.0 mg/kg body weight), in the experiment on Plasmodium berghei (14.0 mg/kg body weight) and in the experiment with Plasmodium berghei (28.0 mg/kg body weight) was 5 out of 5 throughout. Also, the mortality entry with Plasmodium berghei (P. berghei infected Swiss mice, untreated animals die by 8 days after the infection) is “delayed mortality is observed in treated animals depending on dose”. Besides, in the experiment with Plasmodium berghei (injection in mice infected with P. berghei), the parasitemia result was “able to curtail the parasitemia”.

Source of the values: EP1137386B1, “USE OF TRICLOSAN AS AN AN[…]” (Jawaharlal Nehru Centre For Advanced Scientific Research, priority 1999, dated 2001).
